# Laboratory results: PMC9841589, “Identification of 2-Aminoacyl-1,3,4-thiadiazoles as Prostaglandin E2 and Leukotriene Biosynthesis Inhibitors” (ACS Medicinal Chemistry Letters, 2022)
# Test system: zymosan-induced peritonitis
# Assay: Zymosan-induced peritonitis in mice
# Type: in vivo, mouse
# Procedure: Figure 5 Effect of compound 3 in zymosan-induced peritonitis in mice. Mice were randomly divided into different experimental groups: control group (Ctrl), model group (zymosan + vehicle compound 3), zymosan + compound 3 (i.p. injection 30 min after i.p. injection of zymosan) group, and zymosan + dexamethasone (i.p. injection 30 min after i.p. injection of zymosan) group. At (A) 4 and (B) 24 h after injection, peritoneal exudate from each mouse was recovered, and the total cell number was evaluated. Results are expressed as mean ± SD. For statistical analysis see SI.
# Figure 6 Analysis of cytokine levels collected in the peritoneal exudate of mice from different experimental groups: (A, B) IL-1β, (C, D) IL-6, (E, F) PGE2, and (G, H) IL-10. Results (normalized to exudate levels) are expressed as mean ± SD. For statistical analysis see SI.
# Induction of peritonitis in mice and Enzyme-Linked Immunosorbent Assay (ELISA)
# To examine the anti-inflammatory action of compound 3, we next evaluated the biological activity of
# compound 3 in a mouse model of zymosan-induced peritonitis, as as previously described. 13,14 26, 27
# To this aim, mice were randomly divided into different experimental groups: control group (Ctrl),
# model group (zymosan + vehicle compound 3), zymosan + compound 3 (0.1, 1, and 10 mg/kg), and
# zymosan + dexamethasone (3 mg/kg) group. Animals received the selected compound or
# dexamethasone intraperitoneally (i.p.) 30 min after i.p. injection of zymosan (500 mg/kg)26, 27. Ctrl
# and model groups received an equal volume of vehicle (PBS or DMSO/saline 1:3, respectively).
# Peritoneal exudates were collected at selected time points (4 and 24 h) by washing the cavity with 2
# mL of PBS. Then cell number of lavage fluids was determined by TC10 automated cell counter (Bio-
# Rad, Milan, Italy) using disposable slides. The remaining lavage fluids were centrifuged at 3000 rpm
# for 20 min at 4 °C, and supernatants were frozen at −80 °C for further ELISA analysis according to
# the manufacturer instructions (eBioscience Co., San Diego, CA, USA)10 23 of IL-1β, IL-6, PGE 2 and
# IL-10 following the procedure previously described15-17 28-30. Dexamethasone and zymosan A were
# purchased from Sigma-Aldrich (Milan, Italy). DMSO was purchased from Merck (Italy). Unless
# otherwise stated, all the other reagents were purchased from Carlo Erba (Milan, Italy).
# The data and statistical analysis in this study comply with the international recommendations on
# experimental design and analysis in preclinical pharmacology18-2031-33. The results obtained were
# expressed as the mean ± S.D. or as mean ± S.E.M., as reported in detail in the figure legends. IC 50
# values were calculated by nonlinear regression using GraphPad Prism Version 8.0 software (San
# Diego, CA) one site binding competition. Statistical evaluation of the data was performed by one-
# [1] = 10 mg/kg i.p., 4 h (P ≤ 0.05) and 24 h (P ≤ 0.01)
structure (smiles),measurement,setting,value
O=C(Nc1nnc(-c2ccc(-c3cccc(O)c3)cc2)s1)c1ccccc1Br [compound 3],leucocyte recruitment (total cell number in peritoneal exudate),"1 mg/kg i.p., 4 and 24 h, P ≤ 0.05",remarkable effect
same,leucocyte recruitment (total cell number in peritoneal exudate),"10 mg/kg i.p. 30 min after zymosan, 4 h, P ≤ 0.05",reduced
same,leucocyte recruitment (total cell number in peritoneal exudate),"10 mg/kg i.p. 30 min after zymosan, 24 h, P ≤ 0.01",reduced
same,IL-10 level in peritoneal exudate,"10 mg/kg i.p., 4 and 24 h",modulated only at 24 h
same,PGE2 level in peritoneal exudate,"10 mg/kg i.p., 4 and 24 h (P ≤ 0.01)",significantly reduced
same,IL-1β level in peritoneal exudate,[1],significantly reduced
same,IL-6 level in peritoneal exudate,[1],significantly reduced
